The record followed here is PMC11266932, “Enhanced absorption of prenylated cinnamic acid derivatives from Brazilian green propolis by turmeric in humans and rats” (Food Science & Nutrition, 2024).

Like-named read-outs stand apart in the source and are kept apart here.

Data set [1] in a line: Clinical trial: plasma concentration and AUC of cinnamic acid derivatives after ingestion of BGP alone or BGP plus herbal extract mixture. The data set is classed as in vivo. The settings on record: humans, BGP and herbal extracts co-administered; for AUC: plasma 0–24 h, after enzymatic deconjugation, mean ± SD, n = 6; for fold increase of AUC versus BGP administered alone: 0–24 h. Here is the method:
Six volunteers (three males and three females) completely understood the study protocol and consented to participate in the research. The following exclusion criteria were used for shortlisting participants: past or present medical history (asthma, significant allergies, heart, liver, kidney, and urinary tract disease); prescribed medication; pregnancy; smoking (>20 cigarettes/day); alcohol consumption (>500 mL/day of beer); use of dietary supplements and healthy foods; and participation in other clinical trials. The participants were instructed to refrain from consuming propolis and propolis‐containing foods and beverages during the study period and 1 week prior to the start of the study. After a 12‐h fast, the participants were given a test food comprising the encapsulated BGP powder or a mixture of the BGP powder and herbal extracts in two experimental periods separated by 1 week. […] The collected samples were centrifuged at 1500 g for 3 min at 23 ± 2°C to separate the plasma, which was subsequently preserved at −80°C until further sample preparation.
(§1) Briefly, 50 μL of plasma was treated with a sulfatase/β‐glucuronidase solution (sulfatase 15 units/sample) in 100 mM sodium acetate and 5 mM ascorbate at 37°C for 1 h. Following the incubation, 850 μL of methanol was added to the samples to stop the deconjugation reaction, after which centrifugation was performed at 2000 g for 10 min at 23 ± 2°C. The supernatant was evaporated under nitrogen gas and then reconstituted in a fixed volume of methanol. The samples were filtered through a 0.22 μm PTFE membrane and then analyzed by LC–MS/MS.
(§2) Briefly, 5 μL of the sample was injected into a reversed‐phase column (Acquity UPLC BEH C18, 2.1 × 100 mm, ID. 1.7 μm; Waters, Milford, MA, USA) held at 30°C. The elution was performed using solvent A (0.1% formic acid) and solvent B (acetonitrile) at a flow rate of 0.3 mL/min. The gradient profiles were as follows: 5% B (0–2 min), 5–95% B (2–22 min), 95% B (22–25 min), and 5% B (25–30 min). Tandem mass spectrometry (MS/MS) was conducted using an ion trap mass spectrometer with a heated electrospray ion source (HESI) in both positive and negative ionization modes (scan range m/z 70–1000). […] External standard curves for cinnamic acid derivatives were generated using eight concentrations of authentic standard solutions (1, 5, 10, 50, 100, 250, 500, and 1000 ng/mL).
(§3) Quantification of cinnamic acid derivatives in the plasma was performed using the Trace Finder software version 4.1 (Thermo Scientific). The plasma concentration versus time data for the analytes obtained from each human and rat were entered into a Microsoft Excel spreadsheet. The area under the plasma concentration–time curve (AUC) was calculated using the linear trapezoidal rule, extending to the last sampling point.

Data set [2] in a line: Animal study: plasma concentration and AUC of cinnamic acid derivatives after intragastric BGP with or without each herbal extract. The data set is classed as in vivo, Wistar/ST rats. Conditions: rats. As to the method:
Wistar/ST rats (male, 7 weeks old) were purchased from Japan SLC (Shizuoka, Japan). […] The rats were quarantined and acclimatized under the above conditions for 1 week and divided into six groups (eight rats/group) according to their average body weight (240–260 g). Each test sample listed in Table 1 was dissolved in 10% propylene glycol (1 mL per rat) and administered intragastrically to the rats after an overnight fasting period with free access to water. […] The collected samples were centrifuged at 1500 g for 10 min at 4°C to separate the plasma and preserved at −80°C until further sample preparation.
as §1, §2, §3

Where [3] appears, read: BGP co-administered with turmeric extract.

For the compound `CC(C)=CCc1cc(C=CC(=O)O)cc(O)c1O` [3,4‐dihydroxy‐5‐prenylcinnamic acid], the AUC (in general, the area under the concentration-time curve, a measure of exposure) in data set [1] (both sexes, human, oral, read-out: AUC) amounted to 34.5 ± 12.2 ng·h/mL. Further, in data set [1], the “fold increase of AUC versus BGP administered alone” value is recorded as 1.8 fold. Besides, the “change of plasma concentration versus BGP alone (in words)” value in data set [2] (BGP + turmeric extract, at 30 min and 3 h) is reported as “significant increases or increasing trends”. Moreover, the “change of AUC versus BGP alone (in words)” value in data set [2] (BGP co-administered with gotu kola extract) and in data set [2] (setting [3]) was “tended to increase” in each case.
For `CC(C)=CCc1cc(/C=C/C(=O)O)cc(C/C=C(\C)CO)c1O` [capillartemisin A], the entries for the “fold increase of AUC versus BGP administered alone” value in data set [1] and in data set [2] (setting [3]) were 1.6 fold and 1.7 fold, respectively. In data set [1], the AUC was 57.0 ± 16.5 ng·h/mL. Also, the “fold increase of plasma concentration versus BGP alone” value in data set [2] (BGP + turmeric extract, 30 min after administration) stood at 2.2 fold; in data set [2] (BGP + turmeric extract, 3 h after administration), 1.7 fold; in data set [2] (BGP + turmeric extract, 6 h after administration), 3.0 fold.
